In paper PMC10299916, “A multi-enzyme machine polymerizes the Haemophilus influenzae type b capsule” (Nature Chemical Biology, 2023):

Legend:
PrsA = target: T1, PrsA (Haemophilus influenzae, UniProt P44328); experiment: HPLC-AEC; type: biochemical; details: Mg2+, pH 8.0, 37 °C
T1 construct: gene prs; recombinant, E. coli M15; cloned in MBP-S3N10-...-His6 vector

Bcs3 = target: T2, Bcs3 (Haemophilus influenzae, UniProt Q2ERG0); experiment: HPLC-AEC and Alcian blue PAGE of polymer formation; type: biochemical; details: Mg2+, pH 8.0, 37 °C
T2 construct: full length, 1,215 residues; N-terminal MBP-S3N10 and C-terminal His6 fusion; E. coli M15

Bcs1 = target: T3, Bcs1 (Haemophilus influenzae, UniProt Q48230); experiment: HPLC-AEC; type: biochemical; details: 5 mM, CTP, Mg2+, pH 8.0, 37 °C
T3 construct: recombinant, E. coli M15; cloned in MBP-S3N10-...-His6 vector

[1] = target: Bcs3 crystallization construct MBP-Bcs3_(2–1162)-His6 after PreScission digest (Bcs3-His6) (Haemophilus influenzae serotype b (strain ATCC 10211)) (UniProt Q2ERG0); experiment: crystal structure

Nc1ncnc2c1ncn2[C@@H]1O[C@H](COP(=O)(O)OP(=O)(O)OP(=O)(O)O)[C@@H](O)[C@H]1O [ATP]
HPLC-AEC (PrsA; ribose-5-phosphate): (c) PrsA using ATP, CTP or UTP as donor substrate

Nc1ccn([C@@H]2O[C@H](COP(=O)(O)OP(=O)(O)OC[C@@H](O)[C@@H](O)[C@@H](O)CO)[C@@H](O)[C@H]2O)c(=O)n1 [CDP-ribitol]
HPLC-AEC and Alcian blue PAGE of polymer formation (Bcs3; generated in situ by RpiA and Bcs1, with PRPP, CroT donor): CDP-ribitol was only used up in the presence of PRPP, with concomitant production of CMP

O=P(O)(O)OC[C@H]1OC(O)[C@H](O)[C@@H]1O (stereo partly drawn) [D-ribose-5-phosphate]
HPLC-AEC (PrsA; ATP): The reaction cascade (e, f) was started with (e) Rib or (f) Rib-5P

NC(=O)C1=CN([C@@H]2O[C@H](COP(=O)(O)OP(=O)(O)OC[C@H]3O[C@@H](n4cnc5c(N)ncnc54)[C@H](OP(=O)(O)O)[C@@H]3O)[C@@H](O)[C@H]2O)C=CC1 [NADPH]
HPLC-AEC (Bcs1; ribulose-5-phosphate): presence of Bcs1 in a reaction containing ribulose-5-phosphate led to the consumption of NADPH

O=P(O)(O)OC[C@H]1O[C@H](OP(=O)(O)OP(=O)(O)O)[C@H](O)[C@@H]1O [PRPP, 5-phospho-α-D-ribose-1-diphosphate]
HPLC-AEC and Alcian blue PAGE of polymer formation (Bcs3; 5 mM, CDP-ribitol generated in situ by RpiA and Bcs1, CriT donor): Thus, we concluded that PRPP is the donor substrate for Bcs3.

O=C(CO)[C@H](O)[C@H](O)COP(=O)(O)O [ribulose-5-phosphate]
HPLC-AEC (Bcs1; NADPH): presence of Bcs1 in a reaction containing ribulose-5-phosphate led to the consumption of NADPH

Bcs3 crystallization construct MBP-Bcs3_(2–1162)-His6 after PreScission digest (Bcs3-His6) (from UniProt Q2ERG0 2-1162) (enzyme)
stoichiometry N [1]: 2
